In US20230321286A1, “PROTOCOL FOR MINIMIZING TOXICITY OF COMBINATION DOSAGES AND IMAGING AGENT FOR VERIFICATION” (priority 2018, published 2023):

Tests used:
[1] = Plasma concentration of PLX038, released SN-38 and SN-38G in rats bearing HT29 tumor xenografts (HPLC with fluorescence monitoring); format: in vivo; settings: rat with HT29 xenograft, ~200 mg/kg PLX038, conjugate
[2] = tested on: HT29 tumor xenografts; test: Levels of conjugate and released SN-38 in tumor versus plasma, HT29 xenograft-bearing rats
[3] = tested on: MX-1 tumor xenografts; test: Efficacy of PLX038A (PEG-SN38) in mice bearing MX-1 tumor xenografts; settings: 137 µmole/kg irinotecan single dose
[4] = tested on: HT-29 xenograft; settings: irinotecan control
Protocol: Varying doses of the unlabeled PEG~(SN-38)4 conjugate are injected into animals.

[5] = 14 days post-dosing, single 200 mg/kg PLX038
[6] = administered dose 200 mg/kg PLX038

| SMILES | half-life in plasma / systemic circulation [1] [h] | accumulation in tumors [2, 5] | serum levels [2, 5] | concentration of released SN-38 in the tumor [2, 6] | released SN-38 in the circulation [2, 6] | conjugate / free drug in the plasma ([2]; lower dosages of PLX038) | conjugate / free drug in the tumor ([2]; lower dosages of PLX038) | effect on tumor growth compared with vehicle [3] | tumor inhibition relative to PLX038 [4] | gastrointestinal (GI) toxicity ([4]; rat HT-29 xenograft model, PLX038 single 200 mg/kg) |
| --- | --- | --- | --- | --- | --- | --- | --- | --- | --- | --- |
| CCc1c2c(nc3ccc(O)cc13)-c1cc3c(c(=O)n1C2)COC(=O)[C@]3(O)CC [SN-38] | 50 | high accumulation | undetectable | about 80 pm/g | barely detectable | not detected in the plasma | significant concentrations | – | – | – |
| CCc1c2c(nc3ccc(OC(=O)N4CCC(N5CCCCC5)CC4)cc13)-c1cc3c(c(=O)n1C2)COC(=O)[C@]3(O)CC [irinotecan] | – | – | – | – | – | – | – | only somewhat better than vehicle | near-equal tumor inhibition | significant GI toxicity |
